For this test, the target named is Recombinant human cathepsin A (Homo sapiens (Human), UniProt P10619). Kind of test: Cathepsin A inhibitory activity (cleavage of Bodipy FL-labeled bradykinin, microfluidic capillary electrophoresis). The test is classed as biochemical.
Where [1] appears, read: read-out: Activity (IC50, cathepsin A inhibitory activity).
Setting [2] is: read-out: Activity [μM] (IC50, cathepsin A inhibitory activity).
Where [3] appears, read: read-out: Activity (IC50, cathepsin A inhibition).

Drawing on patent US9029559B2, “Substituted 3-heteroaroylamino-propionic acid derivatives and their use as pharmaceuticals” (SANOFI, priority 2011, dated 2015), this text covers IC50 for 51 molecules.

As a reminder, the IC50 is the concentration that gives 50% inhibition.

Where two headings read alike, the source gives them in different places.

Sequence of Recombinant human cathepsin A (P10619 29-326): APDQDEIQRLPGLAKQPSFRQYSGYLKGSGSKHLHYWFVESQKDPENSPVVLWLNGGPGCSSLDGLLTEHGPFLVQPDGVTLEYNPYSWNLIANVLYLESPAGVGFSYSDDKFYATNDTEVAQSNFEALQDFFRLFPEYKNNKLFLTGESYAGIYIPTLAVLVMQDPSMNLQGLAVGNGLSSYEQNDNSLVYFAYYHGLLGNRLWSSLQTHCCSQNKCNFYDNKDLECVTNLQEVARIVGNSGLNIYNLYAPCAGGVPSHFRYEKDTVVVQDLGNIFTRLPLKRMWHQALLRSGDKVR
Sequence of Recombinant human cathepsin A (P10619 327-480): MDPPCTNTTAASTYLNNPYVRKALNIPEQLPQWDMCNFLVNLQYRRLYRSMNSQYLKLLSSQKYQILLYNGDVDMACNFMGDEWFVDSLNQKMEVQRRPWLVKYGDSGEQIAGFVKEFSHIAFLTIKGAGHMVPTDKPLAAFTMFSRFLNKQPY
Method: Pharmacological Tests a) Cathepsin A Inhibitory Activity
Briefly, cathepsin A was incubated at 10 μg/ml with cathepsin L at 1 μg/ml in activation buffer (25 mM 2-(morpholin-4-yl)-ethanesulfonic acid (MES), pH 6.0, containing 5 mM dithiothreitol (DTT)) for 15 min at 37° C.
The activated cathepsin A was diluted in assay buffer (25 mM MES, pH 5.5, containing 5 mM DTT) and mixed with the test compound (dissolved in assay buffer containing (v/v) 3% DMSO) or, in the control experiments, with the vehicle in a multiple assay plate. After incubation for 15 min at room temperature, as substrate then bradykinin carrying an N-terminal ®Bodipy FL (4,4-difluoro-5,7-dimethyl-4-bora-3a,4a-diaza-s-indacene-3-propionyl) label (JPT Peptide Technologies GmbH; dissolved in assay buffer) was added to the mixture. […] After incubation for 15 min at room temperature the reaction was stopped by the addition of stop buffer (130 mM 2-(4-(2-hydroxy-ethyl)-piperazin-1-yl)-ethanesulfonic acid, pH 7.4, containing (v/v) 0.013% ®Triton X-100, 0.13% Coating Reagent 3 (Caliper Life Sciences), 6.5% DMSO and 20 μM ebelactone B (Sigma, #E0886)).
Uncleaved substrate and product were then separated by a microfluidic capillary electrophoresis on a LabChip® 3000 Drug Discovery System (12-Sipper-Chip; Caliper Life Sciences) and quantified by determination of the respective peak areas. Substrate turnover was calculated by dividing product peak area by the sum of substrate and product peak areas, and the enzyme activity and the inhibitory effect of the test compound thus quantified.

With `COc1ccc(Cl)cc1-c1nc(C(=O)N[C@@H](CC(=O)O)c2ccccc2F)ccc1OC` [compound 300], the IC50 under setting [1] was 4.11 µM.

Regarding `Cc1ccccc1[C@H](CC(=O)O)NC(=O)c1cccc(-c2cccc(C(F)(F)F)c2)n1` [compound 133], the IC50 under setting [2] came to 5.76 µM.

Take `COc1ccc(C(=O)N[C@@H](CC(=O)O)c2ccccc2F)nc1-c1cccc(C2(O)COC2)c1` [compound 326]: the IC50 under setting [2] came to 8.46 µM.

In the case of `COc1ccc(C(=O)N[C@@H](CC(=O)O)c2ccccc2Cl)nc1-c1ccc(F)c(F)c1` [compound 440], under setting [1], the IC50 turned out to be 1.96 µM.

`CCc1ccnc(C(=O)NC(CC(=O)O)c2ccccc2Cl)c1` (stereo not drawn) [compound 532]: the IC50 under setting [3] stood at 10.2 µM.

As to `COc1ncc(C(=O)N[C@@H](CC(=O)O)c2ccccc2Cl)cc1-c1cccc(C)c1` [compound 395], the IC50 under setting [2] stood at 6.57 µM.

For `COc1ccc(F)c(-c2cncc(C(=O)N[C@@H](CC(=O)O)c3ccccc3C)c2)c1` [compound 88], under setting [1], the IC50 is 8.51 µM.

`Cc1ccc([C@H](CC(=O)O)NC(=O)c2cccc(-c3ccccc3F)n2)cc1` [compound 559]: under setting [3], the IC50 turned out to be 4.38 µM.

Regarding `Cc1ccccc1[C@H](CC(=O)O)NC(=O)c1cccc(-c2cccc(C(C)(C)O)c2)n1` [compound 176, (S)-3-({6-[3-(1-Hydroxy-1-methyl-ethyl)-phenyl]-pyridine-2-carbonyl}-amino)-3-o-tolyl-propionic acid], the IC50 under setting [2] was determined as 3.32 µM.

In the case of `Cc1ccccc1[C@H](CC(=O)O)NC(=O)c1cccc(-c2ccccc2C#N)n1` [compound 157], under setting [2], the IC50 is 2.46 µM.

As to `COc1ccc(Cl)cc1-c1nc(C(=O)N[C@@H](CC(=O)O)c2ccc(C)cc2)ccc1OC` [compound 233], under setting [1], the IC50 turned out to be 2.24 µM.

As to `Cc1ccccc1[C@H](CC(=O)O)NC(=O)c1cccc(-c2cccc(-c3ccccc3)c2)n1` [compound 147], the IC50 under setting [2] turned out to be 3.16 µM.

Consider `Cc1ccccc1[C@H](CC(=O)O)NC(=O)c1ccc(Oc2ccccc2)nc1` [compound 46], for which the concentration for half-maximal inhibition (IC50) under setting [1] was found to be 9.94 µM.

As for `Cc1ccccc1[C@H](CC(=O)O)NC(=O)c1cccc(-c2ccccc2C(F)(F)F)n1` [compound 139], the IC50 under setting [2] turned out to be 1.09 µM.

Take `Cc1ccccc1[C@H](CC(=O)O)NC(=O)c1cccc(-c2ccc(F)c(F)c2)n1` [compound 151]: the IC50 under setting [2] stood at 1.18 µM.

Take `Cc1ccc(-c2cccc(C(=O)N[C@@H](CC(=O)O)c3ccccc3C)n2)cc1` [compound 137]: the IC50 under setting [2] came out at 1.24 µM.

`COc1ncc(C(=O)N[C@@H](CC(=O)O)c2ccccc2C)cc1-c1ccc(F)c(Cl)c1` [compound 406]: the half-maximal inhibitory concentration (IC50) under setting [1] was found to be 10 µM.

Consider `COc1ccc(C(=O)N[C@@H](CC(=O)O)c2ccccc2Cl)nc1-c1cccc(F)c1` [compound 426], for which the IC50 under setting [1] was determined as 1.54 µM.

With `COc1ccc(C(=O)N[C@@H](CC(=O)O)c2ccc(C)cc2)nc1-c1cccc(C)c1` [compound 197], the IC50 under setting [2] was found to be 1.71 µM.

Turning to `COc1ccccc1-c1cccc(C(=O)NC(CC(=O)O)c2ccccc2Cl)n1` (stereo not drawn) [compound 597], the IC50 under setting [3] is 1.45 µM.

Take `COc1ccc(C(=O)N[C@@H](CC(=O)O)c2ccccc2C)nc1-c1cc(C)cnc1Cl` [compound 469]: the IC50 under setting [1] came out at 5.63 µM.

As to `COc1ccc(C(=O)N[C@@H](CC(=O)O)c2ccc(C)cc2)nc1-c1cccc(-c2nnc(C)o2)c1` [compound 249], the IC50 under setting [1] came to 8.71 µM.

Take `COc1ccc(C(=O)N[C@@H](CC(=O)O)c2ccc(C)cc2)nc1-c1cc(C)cnc1Cl` [compound 247]: under setting [1], the IC50 turned out to be 8.43 µM.

Take `Cc1ccccc1[C@H](CC(=O)O)NC(=O)c1cncc(Cl)n1` [compound 514]: under setting [3], the IC50 amounted to 1.21 µM.

Take `Cc1ccccc1[C@H](CC(=O)O)NC(=O)c1cccc(-c2cccc(C#N)c2)n1` [compound 145]: the IC50 under setting [2] stood at 7.46 µM.

Regarding `COc1ccc(C(=O)N[C@@H](CC(=O)O)c2ccccc2C)nc1-c1ccc(C)c(F)c1` [compound 370], the IC50 under setting [2] was 1.58 µM.

Take `COc1ncc(C(=O)N[C@@H](CC(=O)O)c2ccccc2C)cc1-c1ccc(F)cc1` [compound 407]: the IC50 under setting [1] was found to be 4.39 µM.

For `COc1ccc(C(=O)N[C@@H](CC(=O)O)c2ccccc2Cl)nc1-c1cc(C)ccc1Cl` [compound 492], the IC50 under setting [3] turned out to be 1.05 µM.

With `COc1ccc(C(=O)N[C@@H](CC(=O)O)c2ccccc2F)nc1-c1ccc(C#N)cc1F` [compound 325], under setting [2], the IC50 stood at 3.58 µM.

For the molecule `COc1cc(Cl)ccc1-c1nc(C(=O)N[C@@H](CC(=O)O)c2ccccc2F)ccc1OC` [compound 299], the IC50 under setting [1] was found to be 1.83 µM.

Consider `COc1cccc(C(=O)N[C@@H](CC(=O)O)c2ccccc2C)n1` [compound 31], for which the IC50 under setting [1] turned out to be 4.77 µM.

With `COc1ccc(C(=O)N[C@@H](CC(=O)O)c2ccccc2F)nc1-c1cccc(-c2ccccc2)c1` [compound 276], under setting [1], the IC50 came out at 2.16 µM.

Regarding `Cc1ccccc1[C@H](CC(=O)O)NC(=O)c1cccc(N2CCCCC2)n1` [compound 54], the IC50 under setting [1] stood at 8.93 µM.

For the molecule `COc1cccc(-c2cccc(C(=O)N[C@@H](CC(=O)O)c3ccccc3C)n2)c1` [compound 43], under setting [1], the IC50 amounted to 2.27 µM.

Regarding `COc1ccc(C(=O)N[C@@H](CC(=O)O)c2ccccc2Cl)nc1-c1cccc(C2(O)COC2)c1` [compound 495], under setting [3], the IC50 worked out at 3.89 µM.

For the molecule `CNc1cncc(C(=O)N[C@@H](CC(=O)O)c2ccccc2C)n1` [compound 12], the 50% inhibitory concentration (IC50) under setting [1] worked out at 7.32 µM.

Take `COc1cccc(-c2cccc(C(=O)NC(CC(=O)O)c3ccccc3Cl)n2)c1` (stereo not drawn) [compound 596]: the IC50 under setting [3] stood at 5.77 µM.

With `COc1ccc(C(=O)N[C@@H](CC(=O)O)c2ccccc2Cl)nc1-c1ccc(C)c(F)c1` [compound 449], the IC50 under setting [1] worked out at 2.02 µM.

On to `COc1ccc(C(=O)N[C@@H](CC(=O)O)c2ccc(C)cc2)nc1-c1ccc(C)c(F)c1` [compound 223], for which the IC50 under setting [1] stood at 1.29 µM.

As for `Cc1ccc(-c2cncc(C(=O)N[C@@H](CC(=O)O)c3ccccc3C)c2)c(C)c1` [compound 117], under setting [2], the IC50 worked out at 5.27 µM.

`Cc1ccccc1[C@H](CC(=O)O)NC(=O)c1cc(N2CCOCC2)ccn1` [compound 50]: the IC50 under setting [1] was determined as 7.73 µM.

Take `COc1ncc(C(=O)N[C@@H](CC(=O)O)c2ccccc2Cl)cc1-c1cccc(F)c1` [compound 341]: under setting [2], the IC50 amounted to 9.86 µM.

In the case of `COc1ncc(C(=O)N[C@@H](CC(=O)O)c2ccccc2C)cc1-c1cccc(Cl)c1` [compound 413], under setting [1], the IC50 was determined as 6.24 µM.

Regarding `COc1ccc(C(=O)N[C@@H](CC(=O)O)c2ccccc2F)nc1-c1cccc(C(F)(F)F)c1` [compound 253], under setting [1], the IC50 was determined as 4.06 µM.

Regarding `Cc1ccccc1[C@H](CC(=O)O)NC(=O)c1ccc2cnccc2n1` [compound 17], the IC50 under setting [1] came out at 3.09 µM.

In the case of `O=C(O)C[C@H](NC(=O)c1cccc(-c2ccccc2F)n1)c1cccc(Cl)c1Cl` [compound 606], where the note is “read-out: Activity (Cathepsin A inhibitory activity, IC50)”, the IC50 was 3.93 µM.

In the case of `O=C(O)CC(NC(=O)c1cccc(Br)n1)c1ccccc1Cl` (stereo not drawn) [compound 562], the IC50 under setting [3] came out at 2.1 µM.

Consider `O=C(O)CC(NC(=O)c1ccc(Oc2ccccc2)nc1)c1ccccc1Cl` (stereo not drawn) [compound 585], for which, under setting [3], the 50% inhibitory concentration (IC50) worked out at 8.67 µM.

With `COc1ccc(F)c(-c2nc(C(=O)N[C@@H](CC(=O)O)c3ccccc3F)ccc2OC)c1` [compound 307], the IC50 under setting [2] amounted to 2.92 µM.

In the case of `COc1ccc(C(=O)N[C@@H](CC(=O)O)c2ccccc2F)nc1-c1ccc(Cl)c(F)c1` [compound 313], the IC50 under setting [2] was found to be 3.55 µM.

Take `Cc1ccnc(C(=O)NC(CC(=O)O)c2ccccc2Cl)c1` (stereo not drawn) [compound 528]: under setting [3], the IC50 came out at 5.81 µM.
